Laboratory results reported in ChEMBL document CHEMBL5729022, “Modulators of methyl modifying enzymes, compositions and uses thereof” (2022).

Assay: Biochemical Assay: EZH2 biochemical assay (IC50): Compound potencies were assessed through incorporation of 3H-SAM into a biotinylated H3 peptide. Specifically, 30 pM PRC2 containing wt EZH2 (pentameric complex prepared in-house) was pre-incubated with 450 nM SAM, 450 nM 3H-SAM, 2 μM H3K27me3 activating peptide (H2N-RKQLATKAAR(Kme3)SAPATGGVKKP-amide) and compounds (as 10 point duplicate dose response titrations in DMSO, final assay 0.8% DMSO (v/v)) for 3-5 h in 50 mM Tris (pH 8.5), 1 mM DTT, 0.07 mM Brij-35, 0.1% BSA, and 0.8% DMSO in a total volume of 12.5 μl. Reaction was initiated with biotinylated H3 substrate peptide (H2N-RKQLATKAAR(Kmel)SAPATGGVKKP-NTPEGBiot) as a 2 μM stock in 12.5 μl of buffer and allowed to react at room temperature for 18-22 h. Quenching was accomplished by addition of 20 μl of STOP solution (50 mM Tris (pH 8.5), 200 mM EDTA, 2 mM SAH). 35 μl of the quenched solution was transferred to streptavidin coated FlashPlates (PerkinElmer), incubated 1-2 h, washed, and read in a TopCount Reader (PerkinElmer). IC50s were calculated in Genedata Screener using non-linear least square four parameter fits, where the four parameters were IC50, Hill slope, pre-transitional baseline (0% INH), and post-transitional baseline (100% INH).

IC50: > 0.01 µM
SMILES: Cc1cc(Cl)c(CNC(=O)c2cc(Cl)c3c(c2C)OC(C)(C2CCN(CC(F)(F)F)CC2)O3)c(=O)[nH]1 (single isomer, unassigned)
